# What was measured:
# [1] = test system: COR-L 105 (non-small cell lung carcinoma); experiment: Sulforhodamine B viability assay, COR-L 105; type: cell-based, human; set-up: key to SRB Average: absorbance (optical density) at 570 nm, second wavelength subtracted; conditions: for SRB Average 24 h / SRB Average 48 h / SRB Average 72 h: COR-L 105, Run 3
# Description: (§1) Three different viability assays were chosen to complement each other and yielded results dependent on concentration and cell line: the Methyl Tetrazolium dye assay, the Sulforhodamine B fluorescent dye assay, and the Crystal Violet dye assay.
# The Sulforhodamine B and Crystal Violet assays provide information about protein and were used to complement the Methyl-Tetrazolium dye assay. […] It is used for the quantification of cellular proteins of cultured cells. The assay using Crystal Violet, a dye that binds electrostatically to proteins and stains DNA, provides a reliable, simple assay for measuring viability of cells.
# (§2) The Methyl Tetrazolium, Sulforhodamine B, and Crystal Violet assays were used to assess cell viabilities. The incubation times were 24 hours, 48 hours, and 72 hours. The Nerium oleander extract Anvirzel™ (a hot water extract of oleander obtained from Salud Integral, Honduras) was tested in concentrations ranging from 0.01 ng/mL to 10 ng/mL.
# (§3) Cells were detached by trypsinization (Trypsin-0.25% EDTA, Invitrogen, 25200-072) during the logarithmic phase of culture growth and plated in 96-well plates (18.000 cells/well) (Corning, Costar 359) in a final volume of 200 μl of medium per well. […] The absorbance was measured after 24 hours, 48 hours, and 72 hours of incubation.
# For the Sulforhodamine B assay, 96-well plates were fixed by 10% trichloroacetic acid (Fluka, 91228) and were incubated at 4° C. for 1 hour. Afterwards, plates were rinsed with water and cells were stained with 0.4% Sulforhodamine B (Sigma, 341738), dissolved in 1% acetic acid (Carlo Ebra, 401422) for 15 minutes at room temperature (RT). The unbound stain was washed twice with 1% acetic acid. Finally, 10 mM Tris Buffer pH 10.5 (Sigma, T6791) was added to dissolve the dye.
# (§4) The optical density of each plate was measured on a μQuant spectrophotometer and the data were analyzed with Gen5 software (μQuant Biomolecular Spectrophotometer MQX200 and Gen5™ Microplate Data Collection & Analysis software, BioTek® Instruments. Inc, April 2008). Absorbance was measured at 570 nm for all assays and a second wavelength was measured in order to subtract noise. For the Methyl-Tetrazolium assay this second wavelength was 630 nm and for the Sulforhodamine B and Crystal Violet assays it was 690 nm.
# [2] = test system: COR-L 105 (non-small cell lung carcinoma); experiment: Methyl-Tetrazolium viability assay, COR-L 105; type: cell-based, human; set-up: key to MTT Average: absorbance (optical density) at 570 nm, second wavelength subtracted; conditions: for MTT Average 24 h / MTT Average 48 h / MTT Average 72 h: COR-L 105, Run 3
# Description: as §1
# The Methyl-Tetrazolium dye assay measures the activity of enzymes in mitochondria. The dye precursor is taken up by cells, where it undergoes reduction to the purple formazan. It measures only the mitochondrial activity and, thus, it is not always a reliable indication of whether the cells themselves are alive or dead, since even a recently dead cell has […] enzyme activity in mitochondria. Intracellular glucose concentration, pH, and time before assay all affect the measurements.
# as §2, §3
# For the Methyl-Tetrazolium assay, the dye (Sigma, M2128; 5 mg/mL, diluted in phosphate-buffered saline) was added to each well and plates were incubated for 3 hours at 37° C. After the end of the incubation period, the medium was discarded and the cells were rinsed with phosphate-buffered saline. Finally, the formazan crystals were dissolved in dimethylsulphoxide (Sigma, D4540).
# as §4
compound,measurement,setting,value
N.N.[Cl][Pt][Cl] [cisplatin],SRB Average 24 h,[1]; 0.1 μg/ml CDDP,1.731
same,SRB Average 48 h,[1]; 0.1 μg/ml CDDP,2.759
same,SRB Average 72 h,[1]; 0.1 μg/ml CDDP,2.681
same,SRB Average 24 h,[1]; 1 μg/ml CDDP,1.862
same,SRB Average 48 h,[1]; 1 μg/ml CDDP,2.832
same,SRB Average 72 h,[1]; 1 μg/ml CDDP,2.654
same,SRB Average 24 h,[1]; 10 μg/ml CDDP,1.565
same,SRB Average 48 h,[1]; 10 μg/ml CDDP,2.85
same,SRB Average 72 h,[1]; 10 μg/ml CDDP,2.737
same,SRB Average 24 h,[1]; 100 μg/ml CDDP,1.113
same,SRB Average 48 h,[1]; 100 μg/ml CDDP,2.596
same,SRB Average 72 h,[1]; 100 μg/ml CDDP,2.819
same,SRB Average,"[1]; Run 1, 24 h, 0.1 μg/ml CDDP",1.526
same,SRB Average,"[1]; Run 1, 24 h, 1 μg/ml CDDP",1.714
same,SRB Average,"[1]; Run 1, 24 h, 10 μg/ml CDDP",1.386
same,SRB Average,"[1]; Run 1, 24 h, 100 μg/ml CDDP",1.523
same,SRB Average,"[1]; Run 1, 48 h, 0.1 μg/ml CDDP",1.705
same,SRB Average,"[1]; Run 1, 48 h, 1 μg/ml CDDP",1.716
same,SRB Average,"[1]; Run 1, 48 h, 10 μg/ml CDDP",1.465
same,SRB Average,"[1]; Run 1, 48 h, 100 μg/ml CDDP",1.415
same,SRB Average,"[1]; Run 1, 72 h, 0.1 μg/ml CDDP",1.491
same,SRB Average,"[1]; Run 1, 72 h, 1 μg/ml CDDP",1.356
same,SRB Average,"[1]; Run 1, 72 h, 10 μg/ml CDDP",1.544
same,SRB Average,"[1]; Run 1, 72 h, 100 μg/ml CDDP",1.456
same,SRB Average,"[1]; Run 2, 24 h, 0.1 μg/ml CDDP",1.731
same,SRB Average,"[1]; Run 2, 24 h, 1 μg/ml CDDP",1.862
same,SRB Average,"[1]; Run 2, 24 h, 10 μg/ml CDDP",1.565
same,SRB Average,"[1]; Run 2, 24 h, 100 μg/ml CDDP",1.113
same,SRB Average,"[1]; Run 2, 48 h, 0.1 μg/ml CDDP",2.759
same,SRB Average,"[1]; Run 2, 48 h, 1 μg/ml CDDP",2.832
same,SRB Average,"[1]; Run 2, 48 h, 10 μg/ml CDDP",2.85
same,SRB Average,"[1]; Run 2, 48 h, 100 μg/ml CDDP",2.596
same,SRB Average,"[1]; Run 2, 72 h, 0.1 μg/ml CDDP",2.681
same,SRB Average,"[1]; Run 2, 72 h, 1 μg/ml CDDP",2.654
same,SRB Average,"[1]; Run 2, 72 h, 10 μg/ml CDDP",2.737
same,SRB Average,"[1]; Run 2, 72 h, 100 μg/ml CDDP",2.819
same,MTT Average 24 h,[2]; 0.1 μg/ml CDDP,0.056
same,MTT Average 48 h,[2]; 0.1 μg/ml CDDP,0.069
same,MTT Average 72 h,[2]; 0.1 μg/ml CDDP,0.088
same,MTT Average 24 h,[2]; 1 μg/ml CDDP,0.02
same,MTT Average 48 h,[2]; 1 μg/ml CDDP,0.018
same,MTT Average 72 h,[2]; 1 μg/ml CDDP,0.012
same,MTT Average 24 h,[2]; 10 μg/ml CDDP,0.039
same,MTT Average 48 h,[2]; 10 μg/ml CDDP,0.023
same,MTT Average 72 h,[2]; 10 μg/ml CDDP,0.01
same,MTT Average 24 h,[2]; 100 μg/ml CDDP,0.019
same,MTT Average 48 h,[2]; 100 μg/ml CDDP,0.018
same,MTT Average 72 h,[2]; 100 μg/ml CDDP,0.009
same,MTT Average,"[2]; Run 1, 24 h, 0.1 μg/ml CDDP",0.083
same,MTT Average,"[2]; Run 1, 24 h, 1 μg/ml CDDP",0.023
same,MTT Average,"[2]; Run 1, 24 h, 10 μg/ml CDDP",0.057
same,MTT Average,"[2]; Run 1, 24 h, 100 μg/ml CDDP",0.015
same,MTT Average,"[2]; Run 1, 48 h, 0.1 μg/ml CDDP",0.099
same,MTT Average,"[2]; Run 1, 48 h, 1 μg/ml CDDP",0.018
same,MTT Average,"[2]; Run 1, 48 h, 10 μg/ml CDDP",0.023
same,MTT Average,"[2]; Run 1, 48 h, 100 μg/ml CDDP",0.016
same,MTT Average,"[2]; Run 1, 72 h, 0.1 μg/ml CDDP",0.056
same,MTT Average,"[2]; Run 1, 72 h, 1 μg/ml CDDP",0.017
same,MTT Average,"[2]; Run 1, 72 h, 10 μg/ml CDDP",0.021
same,MTT Average,"[2]; Run 1, 72 h, 100 μg/ml CDDP",0.018
same,MTT Average,"[2]; Run 2, 24 h, 0.1 μg/ml CDDP",0.056
same,MTT Average,"[2]; Run 2, 24 h, 1 μg/ml CDDP",0.02
same,MTT Average,"[2]; Run 2, 24 h, 10 μg/ml CDDP",0.039
same,MTT Average,"[2]; Run 2, 24 h, 100 μg/ml CDDP",0.019
same,MTT Average,"[2]; Run 2, 48 h, 0.1 μg/ml CDDP",0.069
same,MTT Average,"[2]; Run 2, 48 h, 1 μg/ml CDDP",0.018
same,MTT Average,"[2]; Run 2, 48 h, 10 μg/ml CDDP",0.023
same,MTT Average,"[2]; Run 2, 48 h, 100 μg/ml CDDP",0.018
same,MTT Average,"[2]; Run 2, 72 h, 0.1 μg/ml CDDP",0.088
same,MTT Average,"[2]; Run 2, 72 h, 1 μg/ml CDDP",0.012
same,MTT Average,"[2]; Run 2, 72 h, 10 μg/ml CDDP",0.01
same,MTT Average,"[2]; Run 2, 72 h, 100 μg/ml CDDP",0.009

# Source: US20190343908A1, “Therapeutic Combination for the Treatment of Cancer” (Nerium Biotechnology Inc., priority 2011, published 2019)
